Test results reported in patent publication US6818621B2, “Osteopontin-derived chemotactic and inhibitory agents and uses therefor” (Children's Medical Center Corporation, priority 1999, dated 2004).
Where no end group is shown, it is not given here.

Tests used:
[1] = system: MDA-MB-231 cells; experiment: Apoptosis by TUNEL (In situ Cell Death Detection Kit); format: cell-based, human; settings: 100 nM, 12 hours; for increase in apoptosis as compared to OPN: TUNEL
Method: (§1) One million MDA-MB-231 cells were incubated with 100 nM of the OPN, LVVDPK (SEQ ID NO:8), Ac-MLDP (SEQ ID NO:23) or Ac-HKDKMLDP (SEQ ID NO:24) in DME containing 10% FBS in a humidified atmosphere of 5% CO2 at […]. After 12 hours, Caspase 8 and the % of apoptotic cells were determined. Caspase was determined by a fluorescent assay using Chemicon's FLICE/Caspase-8 Fluorometric Protease Assay Kit as described by the manufacturers. Apoptosis was determined using TUNEL using the “In situ Cell Death Detection Kit” (Boehringer-Mannheim, Germany).

[2] = system: MDA-MB-231 cells (CD44+ human breast adenocarcinoma cells); experiment: Chemotactic chamber (Boyden) assay, migration through polycarbonate filters; format: cell-based; settings: Table 4; cells migrating in response to peptide divided by cells migrating in response to buffer
Method: Each peak was then tested for mediation of chemotaxis or for its ability to inhibit OPN mediated chemotaxis using the chemotactic assay as follows (see e.g., Weber et al. (1996) Science 271:509-512). Briefly, uncoated polycarbonated filters (pore size […] ) were used to separate the upper and lower chambers of chemotactic wells. 1×10^3 MDA-MB-231 cells (CD44^+human breast adenocarcinoma cells) were added to the upper chamber and incubated in the presence or absence of the indicated 50 pmols peptide. After 4 hours, the filters were removed, fixed in methanol arid stained with hematoxylin and eosin. Cells which have responded to the peptide, migrate to various areas of the lower surface and can be counted microscopically. Each data point is reported as the mean number of migrating cells per random high power field.
Peptide 51 was identified as being chemotactic. The peptide was sequenced using a gas-phase sequenator and determined to have the sequence LVLDPK (SEQ ID NO:1). To confirm that chemotaxis was due to this peptide, a 16 amino acid peptide spanning the chemotactic sequence in OPN was synthesized and tested for its chemotactic properties. The resulting peptide, SP64 has the sequence KFHSHKDKLVLDPKSK (SEQ ID NO:2) and containing the chemotactic sequence from residues 9-14. 2×10^4 MDA-MB-231 cells were assayed for chemotactic response to the indicated peptides as described above. Each data point is reported as the mean number of migrating cells per six random high powered fields ± standard error of the mean. Each experiment was repeated four times.
To test the amino acid specificity for chemotactic response several substitutions were created in the chemotactic sequence and the new peptides tested for their ability to induce chemotaxis. Data are expressed as migratory index (cells migrating in response to peptide/cells migration in response to LVLDPK, SEQ ID NO:1).
(§2) To evaluate the potential of peptide analogues to inhibit OPN induced chemotaxis, 100 nmoles of peptide was added to the lower compartment and the response of these cells to OPN was determined as described. MI(buffer) was calculated by dividing the number of cells migrating in response to peptide by the number of cells migrating in response to buffer. MI(inhibitory) equals the number of cells migrating towards OPN in the presence of buffer divided by the number migrating towards OPN in the presence of peptide.

[3] = system: MDA-MB-231 cells; experiment: Inhibition of OPN induced chemotaxis in the chemotactic chamber assay; format: cell-based, human; settings: Table 4; 100 nmoles of peptide; cells migrating towards OPN in presence of buffer divided by number migrating towards OPN in presence of peptide
Method: as §2

[4] = system: breast tumor cells; experiment: Nitric oxide production, nitrate in culture supernatants (Griess reagents); format: cell-based; settings: 12 hours after incubation
Method: The production of nitric oxide (NO) by the breast tumor cells was assessed 12 hours after incubation in the presence of pepL by measuring the accumulation of nitrate in culture supernatants. Griess reagents were used as described by Hwang et al. (1993).

[5] = system: Caspase 8; experiment: FLICE/Caspase-8 Fluorometric Protease Assay; format: cell-based, human; settings: 100 nM, 12 hours, MDA-MB-231 cells
Method: as §1

[6] = system: cells recruited into the peritoneum; experiment: In vivo chemotaxis after injection of peptide into the peritoneal cavity, lavage and flow cytometry; parameters: species or system C57 black mice; settings: coinjected with the chemotactic agent
[7] = system: Peritoneal macrophages, fibroblasts or osteoblasts; experiment: Apoptosis of non-tumor cells treated with PepM; format: cell-based

Row | increase In Caspase 8 activity [5] | Substance | apoptosis (in words) [1] | increase in apoptosis as compared to OPN [1] | MI buffer [2] | MI inhibitory [3] | NO production [4] | effect on chemotactic response to OPN of LVLDPK in vivo [6] | apoptosis of non-tumor cells [7]
1 | ~65% | Acetyl-MLDP (Ac-MLDP) [pepL] | activation of apoptosis | 80% | 1 | 2 | increased NO production | totally abolished the chemotactic response | –
2 | ~80% | Acetyl-HKDKMLDP (Ac-HKDKMLDP) [pepM] | activation of apoptosis | ~120% | 0.8 | 2 | – | – | did not undergo apoptosis
